Test [1] addresses T1, HIS-TGFβR1 T204D (Homo sapiens, UniProt P36897, T204D).
T1 sequence (P36897 34-503 T204D): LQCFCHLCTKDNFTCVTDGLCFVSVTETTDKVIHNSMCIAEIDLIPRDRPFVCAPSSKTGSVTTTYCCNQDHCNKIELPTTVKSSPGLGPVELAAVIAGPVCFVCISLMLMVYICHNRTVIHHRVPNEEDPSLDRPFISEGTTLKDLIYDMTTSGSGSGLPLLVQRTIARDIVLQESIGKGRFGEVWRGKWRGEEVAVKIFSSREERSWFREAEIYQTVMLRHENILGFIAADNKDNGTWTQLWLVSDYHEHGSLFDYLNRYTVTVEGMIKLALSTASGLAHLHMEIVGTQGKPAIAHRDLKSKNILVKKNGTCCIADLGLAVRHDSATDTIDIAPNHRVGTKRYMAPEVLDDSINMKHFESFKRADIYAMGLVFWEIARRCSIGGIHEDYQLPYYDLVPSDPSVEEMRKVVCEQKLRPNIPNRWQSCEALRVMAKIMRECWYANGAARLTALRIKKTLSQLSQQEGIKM
Kind of test: HTRF probe-displacement assay with HIS-TGFβR1 T204D. In kind it is binding. Particulars: 1 nM HIS-TGFβR1 T204D, labeled probe at Kd, 1 hour at room temperature. In a few lines: (§1)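 Binding read as HTRF probe displacement with 1 nM HIS-tagged kinase, 0.2 nM anti-HIS antibody, labelled probe at Kd and 0.5% DMSO, 1 h at room temperature (Ex 340, Em 520/495 nm). Eleven-point dose response normalised to no-enzyme and vehicle controls; IC50 from non-linear regression.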

Test [2] has as its target HIS-TGFβR2 WT (Homo sapiens, UniProt P37173). Kind of test: HTRF probe-displacement assay with HIS-TGFβR2 WT. The format is binding. Particulars: 1 nM HIS-TGFβR2 WT, labeled probe at Kd, 1 hour at room temperature. In a few lines: as §1

Among the data in US20190292179A1 (BRISTOL-MYERS SQUIBB COMPANY, priority 2016, published 2019) are IC50 values, retold here.

Sequence of HIS-TGFβR2 WT (P37173 23-567): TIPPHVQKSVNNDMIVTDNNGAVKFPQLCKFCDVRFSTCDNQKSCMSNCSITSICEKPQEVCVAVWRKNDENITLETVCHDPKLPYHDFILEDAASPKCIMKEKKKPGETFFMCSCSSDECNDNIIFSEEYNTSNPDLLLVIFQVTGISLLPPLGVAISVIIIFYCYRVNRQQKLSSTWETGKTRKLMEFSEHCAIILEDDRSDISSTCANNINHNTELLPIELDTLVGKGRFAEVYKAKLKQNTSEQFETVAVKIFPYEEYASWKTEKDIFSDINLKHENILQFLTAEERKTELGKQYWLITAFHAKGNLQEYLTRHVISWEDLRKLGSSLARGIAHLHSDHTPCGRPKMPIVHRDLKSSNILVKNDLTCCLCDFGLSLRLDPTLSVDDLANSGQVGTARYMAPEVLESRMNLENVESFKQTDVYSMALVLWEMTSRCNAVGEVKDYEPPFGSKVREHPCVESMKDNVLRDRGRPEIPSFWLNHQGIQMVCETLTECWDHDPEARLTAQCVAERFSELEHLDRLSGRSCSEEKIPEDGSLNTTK

Broadly, the IC50 is the concentration at which inhibition is half-maximal. Take `CC(C)c1c(-c2ccc3ncc(C(N)=O)n3c2)c(-c2ccc(F)cc2)nn1C` [Example 72]: the IC50 came out at 0.002 µM in test [1] and 0.963 µM in test [2].

As to `CC(C)c1[nH]nc(-c2ccc(Cl)cc2)c1-c1ccc2ncc(C(N)=O)n2c1` [Example 76, 6-(3-(4-chlorophenyl)-5-isopropyl-1H-pyrazol-4-yl)imidazo[1,2-a]pyridine-3-carboxamide], the half-maximal inhibitory concentration (IC50) in test [1] was determined as 0.001 µM; in test [2], 6.59 µM.

As for `Cc1cc(-c2n[nH]c(C(C)C)c2-c2ccc3ncc(C#N)n3c2)ccc1F` [Example 78, 6-(3-(4-fluoro-3-methylphenyl)-5-isopropyl-1H-pyrazol-4-yl)imidazo[1,2-a]pyridine-3-carbonitrile], the figures for the IC50 in test [1] and in test [2] were 0.001 µM and 6.67 µM, respectively.

With `Cc1cc(-c2n[nH]c(C(C)C)c2-c2ccc3ncc(C(N)=O)n3c2)ccc1F` [Example 79, 6-(3-(4-fluoro-3-methylphenyl)-5-isopropyl-1H-pyrazol-4-yl)imidazo[1,2-a]pyridine-3-carboxamide], the half-inhibitory concentration (IC50) in test [1] is 0.001 µM; in test [2], 0.136 µM.

With `N#Cc1cnc2ccc(-c3c(-c4ccc(F)cc4)n[nH]c3C3CC3)cn12` [Example 84, 6-(5-cyclopropyl-3-(4-fluorophenyl)-1H-pyrazol-4-yl)imidazo[1,2-a]pyridine-3-carbonitrile], the IC50 in test [1] was determined as 0.003 µM; in test [2], 2.68 µM.

For `Fc1ccc(-c2n[nH]c(C3CC3)c2-c2ccc3nccn3c2)cc1` [Example 86, 6-(5-cyclopropyl-3-(4-fluorophenyl)-1H-pyrazol-4-yl)imidazo [1,2-a]pyridine], the IC50 was determined as 0.004 µM in test [1] and 14.6 µM in test [2].

Regarding `Fc1ccc(-c2n[nH]c(C3CC3)c2-c2ccc3nccn3n2)cc1` [Example 87, 6-(5-cyclopropyl-3-(4-fluorophenyl)-1H-pyrazol-4-yl)imidazo [1,2-b]pyridazine], the 50% inhibitory concentration (IC50) stood at 0.002 µM in test [1] and 6.9 µM in test [2].

In the case of `O=C(NC1CC1)c1cnc2ccc(-c3c(-c4ccc(F)cc4)n[nH]c3C3CC3)cn12` [Example 92, N-cyclopropyl-6-(5-cyclopropyl-3-(4-fluorophenyl)-1H-pyrazol-4-yl)imidazo[1,2-a]pyridine-3-carboxamide], the IC50 was determined as 0.001 µM in test [1] and 2.65 µM in test [2].

With `Cn1nc(-c2ccc(F)cc2)c(-c2ccc3ncc(C(N)=O)n3c2)c1C1CC1` [Example 94, 6-(5-cyclopropyl-3-(4-fluorophenyl)-1-methyl-1H-pyrazol-4-yl)imidazo[1,2-a]pyridine-3-carboxamide], the figures for the IC50 in test [1] and in test [2] were 0.001 µM and 0.806 µM, respectively.

In the case of `NC(=O)c1cnc2ccc(-c3c(-c4ccc(Cl)cc4)n[nH]c3C3CC3)cn12` [Example 97, 6-(3-(4-chlorophenyl)-5-cyclopropyl-1H-pyrazol-4-yl)imidazo[1,2-a]pyridine-3-carboxamide], the half-inhibitory concentration (IC50) was determined as 0.001 µM in test [1] and 6.36 µM in test [2].

As for `Cc1cc(-c2n[nH]c(C3CC3)c2-c2ccc3ncc(C#N)n3c2)ccc1F` [Example 99, 6-(5-cyclopropyl-3-(4-fluoro-3-methylphenyl)-1H-pyrazol-4-yl)imidazo[1,2-a]pyridine-3-carbonitrile], the IC50 in test [1] worked out at 0.001 µM; in test [2] it was 2.98 µM.

In the case of `Cc1cc(-c2n[nH]c(C3CC3)c2-c2ccc3ncc(C(N)=O)n3c2)ccc1F` [Example 100, 6-(5-cyclopropyl-3-(4-fluoro-3-methylphenyl)-1H-pyrazol-4-yl)imidazo[1,2-a]pyridine-3-carboxamide], the IC50 in test [1] was determined as 0.001 µM; in test [2], 0.094 µM.

Turning to `NC(=O)c1cnc2ccc(-c3c(-c4ccc(F)cc4)n[nH]c3C(F)(F)F)cn12` [Example 106, 6-(3-(4-fluorophenyl)-5-(trifluoromethyl)-1H-pyrazol-4-yl)imidazo[1,2-a]pyridine-3-carboxamide], the values for the IC50 in test [1] and in test [2] were 0.001 µM and 6.66 µM, respectively.

For `NC(=O)c1cnc2ccc(-c3c(-c4ccc(F)cc4)nn4c3COCC4)cn12` [Example 111, 6-(2-(4-fluorophenyl)-6,7-dihydro-4H-pyrazolo[5,1-c][1,4]oxazin-3-yl)imidazo[1,2-a]pyridine-3-carboxamide], the IC50 in test [1] came to 0.002 µM; in test [2] it was 0.577 µM.

On to `CC(=O)Nc1cc(-c2c(-c3ccc(F)cc3)nn3c2COCC3)ccn1` [Example 112, N-(4-(2-(4-fluorophenyl)-6,7-dihydro-4H-pyrazolo[5,1-c][1,4]oxazin-3-yl)pyridin-2-yl)acetamide], for which the IC50 in test [1] is 0.011 µM; in test [2] it was 0.105 µM.

For the compound `Cc1cccc(-c2n[nH]c(C(C)C)c2-c2ccc3ncc(C#N)n3c2)n1` [Example 114, 6-(5-isopropyl-3-(6-methylpyridin-2-yl)-1H-pyrazol-4-yl) imidazo [1,2-a]pyridine-3-carbonitrile], the IC50 in test [1] is 0.001 µM; in test [2], 0.761 µM.

As for `Cc1cccc(-c2n[nH]c(C(C)C)c2-c2ccc3ncc(C(N)=O)n3c2)n1` [Example 115, 6-(5-isopropyl-3-(6-methylpyridin-2-yl)-1H-pyrazol-4-yl)imidazo[1,2-a]pyridine-3-carboxamide], the figures for the half-maximal inhibitory concentration (IC50) in test [1] and in test [2] were 0.001 µM and 0.009 µM, respectively.

As to `Cc1cccc(-c2nn(C)c(C(C)C)c2-c2ccc3ncc(C#N)n3c2)n1` [Example 116, 6-(5-isopropyl-1-methyl-3-(6-methylpyridin-2-yl)-1H-pyrazol-4-yl)imidazo[1,2-a]pyridine-3-carbonitrile], the values for the IC50 in test [1] and in test [2] were 0.001 µM and 5.77 µM, respectively.

As to `Cc1cccc(-c2n[nH]c(C(C)C)c2-c2ccc3nccn3c2)n1` [Example 118, 6-(5-isopropyl-3-(6-methylpyridin-2-yl)-1H-pyrazol-4-yl)imidazo[1,2-a]pyridine], the figures for the IC50 in test [1] and in test [2] were 0.001 µM and 2.69 µM, respectively.

For `Cc1cccc(-c2nn(C)c(C(C)C)c2-c2ccc3nccn3c2)n1` [Example 119, 6-(5-isopropyl-1-methyl-3-(6-methylpyridin-2-yl)-1H-pyrazol-4-yl)imidazo[1,2-a]pyridine], the IC50 in test [1] was 0.003 µM; in test [2], 4.95 µM.

Take `Cc1cccc(-c2n[nH]c(C3CC3)c2-c2ccc3ncc(C#N)n3c2)n1` [Example 121, 6-(5-cyclopropyl-3-(6-methylpyridin-2-yl)-1H-pyrazol-4-yl)imidazo[1,2-a]pyridine-3-carbonitrile]: the IC50 is 0.001 µM in test [1] and 0.216 µM in test [2].

Regarding `Cc1cccc(-c2n[nH]c(C3CC3)c2-c2ccc3ncc(C(N)=O)n3c2)n1` [Example 122, 6-(5-cyclopropyl-3-(6-methylpyridin-2-yl)-1H-pyrazol-4-yl)imidazo[1,2-a]pyridine-3-carboxamide], the concentration for half-maximal inhibition (IC50) in test [1] worked out at 0.001 µM; in test [2], 0.004 µM.

In the case of `Cc1cccc(-c2n[nH]c(C3CC3)c2-c2ccc3nccn3c2)n1` [Example 123, 6-(5-cyclopropyl-3-(6-methylpyridin-2-yl)-1H-pyrazol-4-yl)imidazo[1,2-a]pyridine], the IC50 was 0.001 µM in test [1] and 0.469 µM in test [2].

Take `CCc1[nH]nc(-c2cccc(C)n2)c1-c1ccc2ncc(C#N)n2c1` [Example 124, 6-(5-ethyl-3-(6-methylpyridin-2-yl)-1H-pyrazol-4-yl)imidazo[1,2-a]pyridine-3-carbonitrile]: the 50% inhibitory concentration (IC50) is 0.001 µM in test [1] and 2.06 µM in test [2].

On to `CCc1[nH]nc(-c2cccc(C)n2)c1-c1ccc2ncc(C(N)=O)n2c1` [Example 125, 6-(5-ethyl-3-(6-methylpyridin-2-yl)-1H-pyrazol-4-yl)imidazo[1,2-a]pyridine-3-carboxamide], for which the IC50 in test [1] was 0.001 µM; in test [2], 0.013 µM.

With `CCc1[nH]nc(-c2cccc(C)n2)c1-c1ccc2nccn2c1` [Example 126, 6-(5-ethyl-3-(6-methylpyridin-2-yl)-1H-pyrazol-4-yl)imidazo[1,2-a]pyridine], the 50% inhibitory concentration (IC50) in test [1] came to 0.001 µM; in test [2], 3.15 µM.

As for `CCc1c(-c2ccc3ncc(C(N)=O)n3c2)c(-c2cccc(C)n2)nn1C` [Example 127, 6-(5-ethyl-1-methyl-3-(6-methylpyridin-2-yl)-1H-pyrazol-4-yl)imidazo[1,2-a]pyridine-3-carboxamide], the IC50 in test [1] amounted to 0.001 µM; in test [2], 0.128 µM.

As to `OCc1[nH]nc(-c2ccc(F)cc2)c1-c1ccc2nccn2c1` [Example 134, (3-(4-fluorophenyl)-4-(imidazo[1,2-a]pyridin-6-yl)-1H-pyrazol-5-yl)methanol], the results for the half-inhibitory concentration (IC50) in test [1] and in test [2] were 0.027 µM and 13.1 µM, respectively.

With `Cc1cccc(-c2n[nH]c(CO)c2-c2ccc3nccn3c2)n1` [Example 141, (4-(imidazo[1,2-a]pyridin-6-yl)-3-(6-methylpyridin-2-yl)-1H-pyrazol-5-yl)methanol], the IC50 in test [1] worked out at 0.001 µM; in test [2] it was 4.47 µM.
